Test results published in patent US10150728B2, “Alkylene derivatives” (Shionogi & Co., Ltd., priority 2013, dated 2018).

Each compound was assayed against recombinant human ACC2 (Homo sapiens (Human), UniProt O00763) (assay: Measurement of inhibitory activity on human ACC2 (MALDI-TOF MS, acetyl CoA to malonyl CoA conversion)). Conditions: Table 154.
Format: biochemical
Source text: Preparation 1: Preparation of Recombinant Human ACC2
After a cDNA encoding human ACC2 (27 amino acid residue to 2458 amino acid residues from the N-terminus) was cloned from human kidney cDNA library (Clontech), human ACC2 gene containing His-tag sequence at 5′ terminus was inserted into pFastBac1 (Invitrogen). Recombinant baculovirus was generated using Bac-to-Bac baculovirus expression system (Invitrogen) according to the manufacturer's protocol. To express human ACC2, Sf-9 cells were infected with recombinant baculovirus. After infected cells were disrupted, the filtrated lysate was subjected to Ni-affinity chromatography and anion-exchange chromatography. The fractions containing human ACC2 protein were pooled as recombinant human ACC2 solution.
The Measurement of Inhibitory Activity on Human ACC1 and the ACC2
Recombinant human ACC1 and recombinant human ACC2, which were prepared by the method mentioned above, were preincubated with assay buffer solution (50 mM HEPES-KOH (pH 7.4), 10 mM magnesium chloride, 6-10 mM potassium citrate, 4 mM reduced form of glutathione, 1.5 mg/ml bovine serum albumin) for one hour. Then, 0.2 μL of each this invention compound solution (in DMSO) were dispensed to 384-well microplate, 5 μL of the preincubated enzyme solution and 5 μL of substrate solution (50 mM HEPES-KOH (pH 7.4), 1 mM ATP, 0.8 mM acetyl CoA and 25-50 mM potassium bicarbonate) were added to microplate. After centrifugation and shaking, the reaction mixtures were incubated in a humidified box at room temperature for 1 to 3 hours. After the incubation, the enzyme reactions were stopped by the addition of EDTA. Then, after the samples were cocrystallized with CHCA (α-cyano-4-hydroxy cinnamic acid) matrices on MALDI target plate, by using the matrix assist laser […] time-of-flight mass spectrometer (MALDI-TOF MS), samples were measured in reflector negative mode. Deprotonated ions of acetyl CoA (AcCoA) of substrate and malonyl CoA (MalCoA) of the reaction product were detected, then, the conversion rates of acetyl CoA to malonyl CoA was calculated by the intensity of [MalCoA-H]−/(Intensity of [MalCoA-H]−+Intensity of [AcCoA-H]−) using each signal strength. […] In addition, potassium citrate concentrations in assay buffer solution, potassium hydrogen carbonate concentrations in substrate solution and incubation time were adjusted by each lot of enzyme.

Chain of recombinant human ACC2 (O00763 27-2458): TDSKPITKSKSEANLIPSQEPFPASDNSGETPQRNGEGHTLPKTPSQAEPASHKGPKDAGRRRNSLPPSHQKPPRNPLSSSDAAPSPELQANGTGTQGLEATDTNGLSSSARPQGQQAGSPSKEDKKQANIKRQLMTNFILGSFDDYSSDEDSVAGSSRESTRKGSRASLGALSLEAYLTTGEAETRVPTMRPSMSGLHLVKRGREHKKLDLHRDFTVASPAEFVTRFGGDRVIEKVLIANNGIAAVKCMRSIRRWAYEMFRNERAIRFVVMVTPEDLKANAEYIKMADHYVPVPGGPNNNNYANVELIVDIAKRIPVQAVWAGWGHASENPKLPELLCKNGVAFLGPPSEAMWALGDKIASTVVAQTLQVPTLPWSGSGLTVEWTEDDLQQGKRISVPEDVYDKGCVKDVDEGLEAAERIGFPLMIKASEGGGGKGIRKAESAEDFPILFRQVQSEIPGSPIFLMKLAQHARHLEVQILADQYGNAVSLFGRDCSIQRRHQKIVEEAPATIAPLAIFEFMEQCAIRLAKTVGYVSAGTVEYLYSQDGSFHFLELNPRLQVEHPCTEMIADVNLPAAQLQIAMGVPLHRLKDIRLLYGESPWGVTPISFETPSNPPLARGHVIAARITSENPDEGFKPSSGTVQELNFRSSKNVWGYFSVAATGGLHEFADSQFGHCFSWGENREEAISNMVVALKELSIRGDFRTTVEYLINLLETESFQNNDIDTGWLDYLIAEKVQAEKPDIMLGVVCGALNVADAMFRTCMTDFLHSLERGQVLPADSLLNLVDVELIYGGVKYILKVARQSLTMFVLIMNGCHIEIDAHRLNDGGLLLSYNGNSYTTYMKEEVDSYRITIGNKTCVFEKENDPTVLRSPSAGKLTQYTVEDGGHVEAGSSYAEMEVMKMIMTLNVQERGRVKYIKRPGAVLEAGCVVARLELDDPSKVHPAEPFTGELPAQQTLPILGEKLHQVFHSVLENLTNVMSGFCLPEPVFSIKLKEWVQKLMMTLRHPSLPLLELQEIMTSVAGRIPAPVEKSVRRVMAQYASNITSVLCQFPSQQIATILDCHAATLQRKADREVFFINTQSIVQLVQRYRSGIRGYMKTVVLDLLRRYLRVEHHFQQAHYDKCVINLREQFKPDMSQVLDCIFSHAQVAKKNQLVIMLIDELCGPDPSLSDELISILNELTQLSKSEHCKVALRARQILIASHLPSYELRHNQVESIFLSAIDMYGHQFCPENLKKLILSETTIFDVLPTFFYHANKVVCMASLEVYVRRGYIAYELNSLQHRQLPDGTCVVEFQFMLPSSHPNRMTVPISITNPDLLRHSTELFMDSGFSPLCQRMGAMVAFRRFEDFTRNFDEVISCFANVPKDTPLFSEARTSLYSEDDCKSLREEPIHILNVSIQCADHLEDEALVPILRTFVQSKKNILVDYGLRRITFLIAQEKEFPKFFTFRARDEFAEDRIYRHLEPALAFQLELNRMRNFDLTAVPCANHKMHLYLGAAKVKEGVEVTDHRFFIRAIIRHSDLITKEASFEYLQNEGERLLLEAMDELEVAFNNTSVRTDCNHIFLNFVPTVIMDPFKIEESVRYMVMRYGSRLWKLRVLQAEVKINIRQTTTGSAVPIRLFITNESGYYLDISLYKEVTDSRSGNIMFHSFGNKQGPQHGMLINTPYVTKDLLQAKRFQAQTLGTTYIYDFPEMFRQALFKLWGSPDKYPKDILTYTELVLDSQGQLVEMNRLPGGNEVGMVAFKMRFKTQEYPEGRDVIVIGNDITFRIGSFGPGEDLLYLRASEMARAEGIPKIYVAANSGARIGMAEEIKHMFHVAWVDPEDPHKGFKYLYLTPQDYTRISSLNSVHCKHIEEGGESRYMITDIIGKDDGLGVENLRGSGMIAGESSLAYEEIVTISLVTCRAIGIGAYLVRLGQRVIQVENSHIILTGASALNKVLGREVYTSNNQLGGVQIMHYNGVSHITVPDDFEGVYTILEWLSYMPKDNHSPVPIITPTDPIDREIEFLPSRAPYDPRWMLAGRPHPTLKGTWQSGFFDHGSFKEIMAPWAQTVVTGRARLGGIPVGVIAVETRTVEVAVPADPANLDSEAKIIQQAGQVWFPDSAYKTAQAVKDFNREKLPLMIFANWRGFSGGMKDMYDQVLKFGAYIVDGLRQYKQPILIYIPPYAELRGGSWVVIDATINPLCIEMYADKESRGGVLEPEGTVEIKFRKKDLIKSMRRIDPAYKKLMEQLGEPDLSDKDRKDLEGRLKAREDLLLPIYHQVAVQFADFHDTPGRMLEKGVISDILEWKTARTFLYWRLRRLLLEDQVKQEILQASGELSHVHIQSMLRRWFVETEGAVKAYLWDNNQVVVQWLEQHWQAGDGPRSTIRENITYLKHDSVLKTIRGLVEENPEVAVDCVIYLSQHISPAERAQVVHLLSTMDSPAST

| SMILES | IC50 [nM] |
| --- | --- |
| CCOc1nc2ccc(OC[C@H]3C[C@@H](OC[C@H](C)NC(C)=O)C3)c(F)c2s1 [Compound I-086] | 42 |
| CC(=O)N[C@@H](C)[C@@H](C)Oc1cnc(Oc2ccc3nc(C(C)C)sc3c2F)cn1 [Compound I-049] | 134 |
| CC(=O)N[C@@H](C)COc1cnc(Oc2c(F)cc3nc(C(C)C)sc3c2F)cn1 [Compound I-032] | 52 |

The remaining lines, values ahead:

| IC50 [nM] | SMILES |
| --- | --- |
| 28 | CC(=O)N[C@@H](C)COc1cnc(Oc2ccc3nc(C(C)(F)F)sc3c2Cl)cn1 [Compound I-028] |
| 102 | CC(=O)N[C@@H](C)COc1cnc(Oc2ccc3nc(C4(C)CC4)sc3c2Cl)cn1 [Compound I-035] |
| 154 | CC(=O)N[C@@H](C)COc1cnc(Oc2ccc3nc(N4CC(F)(F)C4)ncc3c2Cl)cn1 [Compound I-072] |
| 10 | CC(=O)N[C@@H](C)COc1cnc(Oc2ccc3nc(C4(F)CC4)sc3c2F)cn1 [Compound I-050] |
| 65 | CCOc1nc2ccc(OC[C@H]3C[C@@H](OC[C@H](C)NC(C)=O)C3)c(Cl)c2s1 [Compound I-087] |

Same assay, conditions: Tables 155-159

| SMILES | IC50 [nM] |
| --- | --- |
| CC(=O)N[C@@H](C)CO[C@H]1CC[C@H](Oc2ccc3nc(N4CCCC(F)(F)C4)sc3c2F)CC1 [Compound I-236] | 102 |
| CC(=O)N[C@@H](C)CO[C@H]1C[C@H](COc2ncnc(N(C)Cc3ccccc3)c2Cl)C1 [Compound I-402] | 83 |
| CC(=O)N[C@@H](C)CO[C@H]1CC[C@H](Oc2ncc(-c3ncccn3)cc2F)CC1 [Compound I-523] | 105 |
| CC(=O)N[C@@H](C)CO[C@H]1C[C@H](COc2ccc3nc(OC(C)C)sc3n2)C1 [Compound I-173] | 5 |
| CC(=O)N[C@@H](C)CO[C@H]1CC[C@H](Oc2ncc(-c3ncc(F)cn3)cc2F)CC1 [Compound I-521] | 20 |
| CC(=O)N[C@@H](C)CO[C@H]1C[C@H](COc2ncnc(OCc3ccc(F)cn3)c2F)C1 [Compound I-459] | 16 |
| CC(=O)N[C@@H](C)CO[C@H]1C[C@H](COc2ccc3nc(OC[C@H](C)F)n(C)c3n2)C1 [Compound I-485] | 180 |
| CC(=O)N[C@@H](C)CO[C@H]1CC[C@H](Oc2nc3ccc(C4CC4)c(F)c3n2C)CC1 [Compound I-621] | 8 |
| CC(=O)N[C@@H](C)CO[C@H]1C[C@H](COc2ncnc3c2ccn3C(C)C)C1 [Compound I-471] | 159 |
| CC(=O)N[C@@H](C)CO[C@H]1C[C@H](COc2ccc3nc(OCC(C)C)sc3n2)C1 [Compound I-196] | 12 |
| CC(=O)N[C@@H](C)CO[C@H]1C[C@H](COc2ncnc(OCc3ncc(Cl)cn3)c2Cl)C1 [Compound I-353] | 11 |
| CC(=O)N[C@@H](C)CO[C@H]1C[C@H](COc2ccc3nc(OC4CCSCC4)sc3n2)C1 [Compound I-248] | 9 |
| CCOc1nc2cnc(O[C@H]3CC[C@H](OC[C@H](C)NC(C)=O)CC3)c(F)c2s1 [Compound I-210] | 6 |
| CCOc1ccc2nc(O[C@H]3CC[C@H](OC[C@H](C)NC(C)=O)CC3)n(C)c2c1C1CC1 [Compound I-735] | 677 |
| CC(=O)N[C@@H](C)CO[C@H]1C[C@H](COc2nccc3c2cnn3CC2CC2(F)F)C1 (some centres unmarked) [Compound I-465] | 160 |
| CCOc1nc2ccc(OC[C@H]3C[C@H](OC[C@H](CC)NC(C)=O)C3)c(F)c2s1 [Compound I-233] | 84 |
| CC(=O)N[C@@H](C)CO[C@H]1CC[C@H](Oc2nc3cnc(OC[C@H](C)F)c(Cl)c3n2C)CC1 [Compound I-608] | 11 |
| CC(=O)N[C@@H](C)CO[C@H]1C[C@H](COc2nsc3ccccc23)C1 [Compound I-424] | 122 |
| CC(=O)N[C@@H](C)CO[C@H]1C[C@H](COc2ncnc(OCc3ccc(C(F)(F)F)nc3)c2Cl)C1 [Compound I-351] | 87 |
| CC(=O)N[C@@H](C)CO[C@H]1CC[C@H](Oc2nc3ccc(OCC(F)(F)F)cc3n2C)CC1 [Compound I-571] | 166 |
| CC(=O)N[C@@H](C)CO[C@H]1CC[C@H](Oc2nc3c(Br)cc(OCC(F)F)cc3n2C)CC1 [Compound I-680] | 140 |
| CC(=O)N[C@@H](C)CO[C@H]1C[C@H](COc2ncnc(OCc3cc(C(F)(F)F)ccn3)c2Cl)C1 [Compound I-437] | 19 |
| COc1cnc(-c2ccnc(OC[C@H]3C[C@H](OC[C@H](C)NC(C)=O)C3)c2Cl)nc1 [Compound I-321] | 167 |
| CCOc1cc(F)c2nc(O[C@H]3CC[C@H](OC[C@H](C)NC(C)=O)CC3)n(C)c2c1Cl [Compound I-740] | 3 |

Continued, values first:

| IC50 [nM] | SMILES |
| --- | --- |
| 480 | CCOc1nc2ccc(OC[C@H]3C[C@H](OC[C@H](C)NC(C)=O)C3)c(Cl)c2n1C [Compound I-490] |
| 133 | CC(=O)N[C@@H](C)CO[C@H]1CC[C@H](Oc2nc3c(C)cc(OCC(F)F)cc3n2C)CC1 [Compound I-709] |
| 146 | CC(=O)N[C@@H](C)CO[C@H]1CC[C@H](Oc2ccc3nc(O[C@H]4C[C@H](C#N)C4)sc3c2F)CC1 [Compound I-161] |
| 110 | CC(=O)N[C@@H](C)CO[C@H]1CC[C@H](Oc2ccc3nc(CC4CC4)n(C)c3n2)CC1 [Compound I-512] |
| 98 | C[C@@H](CO[C@H]1CC[C@H](Oc2nc3c(F)cc(OCC(F)F)c(F)c3n2C)CC1)NC(=O)c1cnn(C)c1 [Compound I-629] |
| 27 | CCOc1nc2cc(F)c(O[C@H]3CC[C@H](OC[C@H](C)NC(C)=O)CC3)nc2n1C [Compound I-516] |
| 87 | CC(=O)N[C@@H](C)CO[C@H]1CC[C@H](Oc2cc(C)c3nc(N4CC(F)(F)C4)sc3n2)CC1 [Compound I-278] |
| 6 | CC(=O)N[C@@H](C)CO[C@H]1CC[C@H](Oc2nc3cnc(OC(C)C)c(Cl)c3n2C)CC1 [Compound I-647] |
| 155 | CC(=O)N[C@@H](C)CO[C@H]1C[C@H](COc2ncnc(OCc3ccncc3)c2Cl)C1 [Compound I-393] |
| 426 | CC(=O)N[C@@H](C)CO[C@H]1C[C@H](Cn2ccc3c(OCc4cc(Cl)ccn4)ncnc32)C1 [Compound I-470] |
| 398 | CC(=O)N[C@@H](C)CO[C@H]1C[C@H](COc2cc3sc(C(C)C)nc3cn2)C1 [Compound I-126] |
| 4 | CCOc1cc(Cl)c2nc(O[C@H]3CC[C@H](OC[C@H](C)NC(C)=O)CC3)n(C)c2c1F [Compound I-651] |
| 12 | CC(=O)N[C@@H](C)CO[C@H]1C[C@H](COc2ccc3nc(C(C)(F)F)sc3n2)C1 [Compound I-147] |
| 17 | CC(=O)N[C@@H](C)CO[C@H]1C[C@H](COc2ccc3nc(N4CC5(CCC5)C4)sc3n2)C1 [Compound I-284] |
| 170 | CCOc1nc2ccc(OC[C@H]3C[C@H](OC[C@H](C)NC(C)=O)C3)nc2n1C [Compound I-519] |
| 323 | C[C@@H](CO[C@H]1CC[C@H](Oc2ncc(-c3ncc(F)cn3)cc2F)CC1)NS(C)(=O)=O [Compound I-540] |
| 36 | CC(=O)N[C@@H](C)CO[C@H]1C[C@H](COc2nc3sc(N4CCC4)nc3cc2F)C1 [Compound I-266] |
| 132 | CCOc1nc2ccc(O[C@H]3CC[C@H](OC[C@H](C)NC(C)=O)CC3)c(F)c2n1C [Compound I-507] |
| 7 | CC(=O)N[C@@H](C)CO[C@H]1C[C@H](COc2ncnc(OCc3ccc(Cl)cn3)c2F)C1 [Compound I-467] |
| 10 | CC(=O)N[C@@H](C)CO[C@H]1CC[C@H](Oc2ccc3nc(OC(C)C)sc3c2Cl)CC1 [Compound I-113] |
| 72 | CC(=O)N[C@@H](C)CO[C@H]1CC[C@H](Oc2nc3c(F)cc(Br)cc3n2C)CC1 [Compound I-622] |
| 12 | CC(=O)N[C@@H](C)CO[C@H]1CC[C@H](Oc2ccc3nc(OC(C)C)sc3c2F)CC1 [Compound I-122] |
| 8 | CCOc1ccc2nc(O[C@H]3CC[C@H](OC[C@H](C)NC(C)=O)CC3)n(C)c2c1F [Compound I-601] |
| 77 | CC(=O)N[C@@H](C)CO[C@H]1CC[C@H](Oc2nc3ccc(C(C)C)cc3n2C)CC1 [Compound I-585] |
| 65 | CC(=O)N[C@@H](C)CO[C@H]1CC[C@H](Oc2nc3c(C#N)cc(OCC(F)F)c(F)c3n2C)CC1 [Compound I-653] |
| 6 | CCOc1nc2ccc(O[C@H]3CC[C@H](OC[C@H](C)NC(C)=O)CC3)cc2s1 [Compound I-177] |
| 85 | CCOc1cc2c(nc(O[C@H]3CC[C@H](OC[C@H](C)NC(C)=O)CC3)n2C)c(F)c1Cl [Compound I-610] |
| 25 | CC(=O)N[C@@H](C)CO[C@H]1CC[C@H](Oc2nc3ccc(Br)c(F)c3n2C)CC1 [Compound I-691] |
| 7 | CC(=O)N[C@@H](C)CO[C@H]1C[C@H](COc2ccc3nc(OC4CCCC4)sc3n2)C1 [Compound I-242] |
| 48 | CC(=O)N[C@@H](C)CO[C@H]1C[C@H](COc2nccc(OC3CCCCC3)c2Cl)C1 [Compound I-368] |
